In ChEMBL document CHEMBL1132664, “C32-O-phenalkyl ether derivatives of the immunosuppressant ascomycin: a tether length study” (Bioorg Med Chem Lett, 1999):

Tests used:
[1] = biological target: Peptidyl-prolyl cis-trans isomerase FKBP1A (Homo sapiens, UniProt P62942); test: Effective concentration determined was towards FK506 binding protein 12 by competitive binding assay using [3H]-dihydro FK-506 as radioligand
Mus musculus = species: Mus musculus; test: In vitro immunosuppressive activity in murine splenic T cells; format: functional, cell-based; details: T-cell

Peptidyl-prolyl cis-trans isomerase FKBP1A, sequence (P62942 whole entry): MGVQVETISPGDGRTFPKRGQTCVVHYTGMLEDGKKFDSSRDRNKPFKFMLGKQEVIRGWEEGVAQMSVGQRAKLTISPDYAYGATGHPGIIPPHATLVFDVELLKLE

Row | SMILES | EC50 [1] [nM] | IC50 (Mus musculus) [nM]
1 | CC[C@@H]1/C=C(\C)C[C@H](C)C[C@H](OC)[C@H]2O[C@@](O)(C(=O)C(=O)N3CCCC[C@H]3C(=O)O[C@H](/C(C)=C/[C@@H]3CC[C@@H](OCc4ccccc4)[C@H](OC)C3)[C@H](C)[C@@H](O)CC1=O)[C@H](C)C[C@@H]2OC | 5.3 | 3
2 | CC[C@@H]1/C=C(\C)C[C@H](C)C[C@H](OC)[C@H]2O[C@@](O)(C(=O)C(=O)N3CCCC[C@H]3C(=O)O[C@H](/C(C)=C/[C@@H]3CC[C@@H](OCCO)[C@H](OC)C3)[C@H](C)[C@@H](O)CC1=O)[C@H](C)C[C@@H]2OC |  | 4.3
3 | CC[C@@H]1/C=C(\C)C[C@H](C)C[C@H](OC)[C@H]2O[C@@](O)(C(=O)C(=O)N3CCCC[C@H]3C(=O)O[C@H](/C(C)=C/[C@@H]3CC[C@@H](OCC(O)c4ccccc4)[C@H](OC)C3)[C@H](C)[C@@H](O)CC1=O)[C@H](C)C[C@@H]2OC (some centres undefined) |  | 0.18
4 | CC[C@@H]1/C=C(\C)C[C@H](C)C[C@H](OC)[C@H]2O[C@@](O)(C(=O)C(=O)N3CCCC[C@H]3C(=O)O[C@H](/C(C)=C/[C@@H]3CC[C@@H](OCCc4ccccc4)[C@H](OC)C3)[C@H](C)[C@@H](O)CC1=O)[C@H](C)C[C@@H]2OC | 9.2 | 0.61
5 | CC[C@@H]1/C=C(\C)C[C@H](C)C[C@H](OC)[C@H]2O[C@@](O)(C(=O)C(=O)N3CCCC[C@H]3C(=O)O[C@H](/C(C)=C/[C@@H]3CC[C@@H](O)[C@H](OC)C3)[C@H](C)[C@@H](O)CC1=O)[C@H](C)C[C@@H]2OC [ASCOMYCIN] |  | 0.69
6 | CC[C@@H]1/C=C(\C)C[C@H](C)C[C@H](OC)[C@H]2O[C@@](O)(C(=O)C(=O)N3CCCC[C@H]3C(=O)O[C@H](/C(C)=C/[C@@H]3CC[C@@H](OCCCc4ccccc4)[C@H](OC)C3)[C@H](C)[C@@H](O)CC1=O)[C@H](C)C[C@@H]2OC | 32 | 3.5
7 | CC[C@@H]1/C=C(\C)C[C@H](C)C[C@H](OC)[C@H]2O[C@@](O)(C(=O)C(=O)N3CCCC[C@H]3C(=O)O[C@H](/C(C)=C/[C@@H]3CC[C@@H](Oc4ccccc4)[C@H](OC)C3)[C@H](C)[C@@H](O)CC1=O)[C@H](C)C[C@@H]2OC | 12 | 5.4
8 | C=C(CO[C@@H]1CC[C@@H](/C=C(\C)[C@H]2OC(=O)[C@@H]3CCCCN3C(=O)C(=O)[C@]3(O)O[C@H]([C@@H](OC)C[C@@H](C)C/C(C)=C/[C@@H](CC)C(=O)C[C@H](O)[C@H]2C)[C@@H](OC)C[C@H]3C)C[C@H]1OC)c1ccccc1 |  | 1
9 | CC[C@@H]1/C=C(\C)C[C@H](C)C[C@H](OC)[C@H]2O[C@@](O)(C(=O)C(=O)N3CCCC[C@H]3C(=O)O[C@H](/C(C)=C/[C@@H]3CC[C@@H](OCC(=O)c4ccccc4)[C@H](OC)C3)[C@H](C)[C@@H](O)CC1=O)[C@H](C)C[C@@H]2OC |  | 0.27
10 | CC[C@@H]1/C=C(\C)C[C@H](C)C[C@H](OC)[C@H]2O[C@@](O)(C(=O)C(=O)N3CCCC[C@H]3C(=O)O[C@H](/C(C)=C/[C@@H]3CC[C@@H](OC(=O)Cc4ccccc4)[C@H](OC)C3)[C@H](C)[C@@H](O)CC1=O)[C@H](C)C[C@@H]2OC |  | 3.5
